These results are taken from ChEMBL document CHEMBL4219230, “Design, synthesis and biological evaluation of novel 4-phenylisoquinolinone BET bromodomain inhibitors” (Bioorg Med Chem Lett, 2018).

Data set [1] in a line: Protein binding in mouse plasma. It counts as ADME, cell-free. To be noted: read-out: PPB (converted).
The nature of data set [2]: Protein binding in human plasma. It counts as ADME, cell-free. As to conditions: read-out: PPB (converted).
The next data set in a line: in vivo. To be noted: CD1, mouse, po, 10 mg/kg.
Data set [3] is described as follows: in vitro. As to conditions: mouse.
Description: Half life in mouse liver microsomes
Data set [4] is described as follows: in vitro. As to conditions: dog, MDCK-MDR1.
Description: Permeability across apical to basolateral side in MDCK cells expressing MDR1
Another data set is described as follows: physchem. To be noted: buffer, pH 7.4.

In brackets after ≈: the same amount, converted by molar mass.

Description for physchem: Solubility of the compound at pH 7.4

With `CCOc1ccc(S(=O)(=O)CC)cc1-c1cn(C)c(=O)c2ccc(-c3cnn(C)c3)cc12`, the figures for the fraction unbound in data set [1] and in data set [2] were 0.14 and 0.12, respectively. Moreover, the AUC(0-t) at 6 h in “in vivo” came out at 11400 ng·h/mL. Besides, the half-life in the data set “in vitro [3]” (liver microsomes) is more than 200 min. Besides, the Papp A→B in the data set “in vitro [4]” came to 6 ×10⁻⁶ cm/s. Also, the solubility in the data set “physchem” stood at 12 µg/mL (≈ 26.6 µM).
Regarding `CCNC(=O)C[C@@H]1N=C(c2ccc(Cl)cc2)c2cc(OC)ccc2-n2c(C)nnc21` [MOLIBRESIB], the half-life in the data set “in vitro [3]” (microsomes) amounted to 95 min.
